{"source": "patent US20090197955A1", "about": "“METHODS OF IMPROVING DHA DEPOSITION AND RELATED FUNCTION AND/OR DEVELOPMENT” (Monsanto Company, priority 2008, published 2009)", "assay": "Fatty acid composition of pig tissues (ham, loin, belly, skin) after feeding SDA ethyl ester diets, 35 day study", "type": "in vivo, pigs", "procedure": "A 35 day study was conducted to determine whether pigs fed a diet containing SDA could enhance tissues with improved fatty acid profiles including increased levels of SDA, EPA, and DHA.\nFour test diets (Treatment 2, 3, 4, and 5) with SDA ethyl ester substituted for corn oil to provide 0.2, 0.4, 0.6 and 0.8% (w/w SDA active ingredient, as-is basis) were fed ad libitum to one pen of four pigs throughout the 35-day test period Table 4). All diets were fed in meal form. Treatment 6 was fed the same diet as Treatment 5, but for a duration of only 21 days.\nAll pigs were individually weighed at initiation of the acclimation and test period, and immediately prior to slaughter. Feed consumption per pen was recorded. Upon completion of the feeding period, pigs were slaughtered for tissue collection and carcass evaluation. Pigs were slaughtered using standard industry practices (electrical stunning, exsanguinations, scalding, dehairing and evisceration). Live weights prior to slaughter and hot carcass weights were recorded. The left side of each carcass was fabricated and samples were obtained from the loin (longissimus muscle), ham (semimembranosus muscle) and belly (a section from the center of the belly) for sensory evaluation, fatty acid, and proximate analysis. Prior to removing the sample for sensory and fatty and proximate analysis from the belly the firmness of the belly was evaluated using a flop test. At 24 hr postmortem fat thickness (10th rib), loin eye area (10th rib), visual color, firmness and marbling, Minolta color (L*a*b*), pH, and drip loss were measured.\nIn order to evaluate the fatty acid composition of pig tissues (loin, ham, skin, and belly), samples were stored at −80° C. until evaluation. After thawing, ˜22 g of fresh pig tissue was chopped into small pieces and thoroughly mixed before 10 g was sub sampled and lyophilized. Lyophilized samples were ground in 30 ml Sarstedt tubes with two ball bearings using a Mega Grinder. Ground samples (loin and ham: 50 mg; skin: 100 mg; belly: 150 mg; diet: 500 mg) were directly methylated with sulfuric acid in methanol (loin and ham: 1 mL; skin: 3 mL; belly: 10 mL; diet: 1.5 mL) sealed in the presence of butylated hydroxytoluene (50 mg BHT in 100 ml reagent) in reflux conditions of 90° C. Resultant fatty acid methyl esters (FAME's) were separated by capillary gas chromatography (GC) and detected by flame ionization detector (FID). The column used was a Supelco Omegawax 250 capillary column with dimensions of 30 m×0.25 mm×0.25 μm film thickness. The run time was 32 minutes. Peaks were identified based on their relative retention time compared to a FAME reference mixture. Quantification was achieved by using an internal standard (c15:0 triacylglyceride (TAG) for pig tissue samples and c17:0 TAG for diet samples). Results are reported as FA g/100 g fat with theoretical response correction.\nFor Table 6 below, each value represents g/100 g total fatty acids a mean of 4 samples (1 sample from each of 4 pigs) per treatment.", "data": [{"compound": "CC/C=C\\C/C=C\\C/C=C\\C/C=C\\CCCCC(=O)O", "note": "[SDA, stearidonic acid]", "values": [{"measurement": "22:3 n-6, ham", "setting": "0.8% SDA feed, 35 days", "value": 0.24, "unit": "g FA per 100 g fat"}, {"measurement": "22:5 n-3 (DPA), ham", "setting": "0.8% SDA feed, 35 days", "value": 0.83, "unit": "g FA per 100 g fat"}, {"measurement": "22:6 n-3 (DHA), ham", "setting": "0.8% SDA feed, 35 days", "value": 0.13, "unit": "g FA per 100 g fat"}, {"measurement": "24:1 n-9, ham", "setting": "0.8% SDA feed, 35 days", "value": 0.07, "unit": "g FA per 100 g fat"}, {"measurement": "Total PUFA, ham", "setting": "0.8% SDA feed, 35 days", "value": 18.89, "unit": "g FA per 100 g fat"}, {"measurement": "Total monoenes, ham", "setting": "0.8% SDA feed, 35 days", "value": 43.54, "unit": "g FA per 100 g fat"}, {"measurement": "Total n-3, ham", "setting": "0.8% SDA feed, 35 days", "value": 2.64, "unit": "g FA per 100 g fat"}, {"measurement": "Total n-6, ham", "setting": "0.8% SDA feed, 35 days", "value": 16.25, "unit": "g FA per 100 g fat"}, {"measurement": "Total saturates, ham", "setting": "0.8% SDA feed, 35 days", "value": 33.18, "unit": "g FA per 100 g fat"}, {"measurement": "n-6/n-3, ham", "setting": "0.8% SDA feed, 35 days", "value": 6.16}, {"measurement": "12:0, ham", "setting": "SDA 0.2%, 35 Day", "value": "2.04 mg FA/100 g of fresh tissue"}, {"measurement": "14:0, ham", "setting": "SDA 0.2%, 35 Day", "value": "34.0 mg FA/100 g of fresh tissue"}, {"measurement": "16:0, ham", "setting": "SDA 0.2%, 35 Day", "value": "673.5 mg FA/100 g of fresh tissue"}, {"measurement": "16:1 n-7, ham", "setting": "SDA 0.2%, 35 Day", "value": "116.6 mg FA/100 g of fresh tissue"}, {"measurement": "18:0, ham", "setting": "SDA 0.2%, 35 Day", "value": "313.7 mg FA/100 g of fresh tissue"}, {"measurement": "18:1 n-7, ham", "setting": "SDA 0.2%, 35 Day", "value": "146.2 mg FA/100 g of fresh tissue"}, {"measurement": "18:1 n-9, ham", "setting": "SDA 0.2%, 35 Day", "value": "1303.4 mg FA/100 g of fresh tissue"}, {"measurement": "18:2 n-6, ham", "setting": "SDA 0.2%, 35 Day", "value": "264.7 mg FA/100 g of fresh tissue"}, {"measurement": "18:3 n-3, ham", "setting": "SDA 0.2%, 35 Day", "value": "5.60 mg FA/100 g of fresh tissue"}, {"measurement": "18:4 n-3, ham", "setting": "SDA 0.2%, 35 Day", "value": "0.76ab mg FA/100 g of fresh tissue"}, {"measurement": "20:1 n-9, ham", "setting": "SDA 0.2%, 35 Day", "value": "22.0 mg FA/100 g of fresh tissue"}, {"measurement": "20:2 n-6, ham", "setting": "SDA 0.2%, 35 Day", "value": "11.4a mg FA/100 g of fresh tissue"}, {"measurement": "20:3 n-3, ham", "setting": "SDA 0.2%, 35 Day", "value": "0.91 mg FA/100 g of fresh tissue"}, {"measurement": "20:4 n-3, ham", "setting": "SDA 0.2%, 35 Day", "value": "2.23ab mg FA/100 g of fresh tissue"}, {"measurement": "20:4 n-6, ham", "setting": "SDA 0.2%, 35 Day", "value": "57.4 mg FA/100 g of fresh tissue"}, {"measurement": "20:5 n-3, ham", "setting": "SDA 0.2%, 35 Day", "value": "3.98a mg FA/100 g of fresh tissue"}, {"measurement": "22:1 n-11, ham", "setting": "SDA 0.2%, 35 Day", "value": "1.06ab mg FA/100 g of fresh tissue"}, {"measurement": "22:5 n-3, ham", "setting": "SDA 0.2%, 35 Day", "value": "11.1b mg FA/100 g of fresh tissue"}, {"measurement": "22:6 n-3, ham", "setting": "SDA 0.2%, 35 Day", "value": "2.21 mg FA/100 g of fresh tissue"}, {"measurement": "Lipid content, ham", "setting": "SDA 0.2%, 35 Day", "value": 3.15, "unit": "%"}, {"measurement": "Total PUFA, ham", "setting": "SDA 0.2%, 35 Day", "value": "377.9 mg FA/100 g of fresh tissue"}, {"measurement": "Total monoenes, ham", "setting": "SDA 0.2%, 35 Day", "value": "1600 mg FA/100 g of fresh tissue"}, {"measurement": "Total n-3, ham", "setting": "SDA 0.2%, 35 Day", "value": "26.8a mg FA/100 g of fresh tissue"}, {"measurement": "Total n-6, ham", "setting": "SDA 0.2%, 35 Day", "value": "351.2 mg FA/100 g of fresh tissue"}, {"measurement": "Total saturates, ham", "setting": "SDA 0.2%, 35 Day", "value": "1029.0 mg FA/100 g of fresh tissue"}, {"measurement": "n-3/n-6, ham", "setting": "SDA 0.2%, 35 Day", "value": 0.080, "unit": "b"}, {"measurement": "12:0, ham", "setting": "SDA 0.4%, 35 Day", "value": "2.22 mg FA/100 g of fresh tissue"}, {"measurement": "14:0, ham", "setting": "SDA 0.4%, 35 Day", "value": "38.2 mg FA/100 g of fresh tissue"}, {"measurement": "16:0, ham", "setting": "SDA 0.4%, 35 Day", "value": "748.4 mg FA/100 g of fresh tissue"}, {"measurement": "16:1 n-7, ham", "setting": "SDA 0.4%, 35 Day", "value": "121.6 mg FA/100 g of fresh tissue"}, {"measurement": "18:0, ham", "setting": "SDA 0.4%, 35 Day", "value": "370.6 mg FA/100 g of fresh tissue"}, {"measurement": "18:1 n-7, ham", "setting": "SDA 0.4%, 35 Day", "value": "151.0 mg FA/100 g of fresh tissue"}, {"measurement": "18:1 n-9, ham", "setting": "SDA 0.4%, 35 Day", "value": "1404.9 mg FA/100 g of fresh tissue"}, {"measurement": "18:2 n-6, ham", "setting": "SDA 0.4%, 35 Day", "value": "316.6 mg FA/100 g of fresh tissue"}, {"measurement": "18:3 n-3, ham", "setting": "SDA 0.4%, 35 Day", "value": "9.17 mg FA/100 g of fresh tissue"}, {"measurement": "18:4 n-3, ham", "setting": "SDA 0.4%, 35 Day", "value": "1.45b mg FA/100 g of fresh tissue"}, {"measurement": "20:1 n-9, ham", "setting": "SDA 0.4%, 35 Day", "value": "23.6 mg FA/100 g of fresh tissue"}, {"measurement": "20:2 n-6, ham", "setting": "SDA 0.4%, 35 Day", "value": "12.7a mg FA/100 g of fresh tissue"}, {"measurement": "20:3 n-3, ham", "setting": "SDA 0.4%, 35 Day", "value": "1.49 mg FA/100 g of fresh tissue"}, {"measurement": "20:4 n-3, ham", "setting": "SDA 0.4%, 35 Day", "value": "5.04bc mg FA/100 g of fresh tissue"}, {"measurement": "20:4 n-6, ham", "setting": "SDA 0.4%, 35 Day", "value": "64.3 mg FA/100 g of fresh tissue"}, {"measurement": "20:5 n-3, ham", "setting": "SDA 0.4%, 35 Day", "value": "7.91b mg FA/100 g of fresh tissue"}, {"measurement": "22:1 n-11, ham", "setting": "SDA 0.4%, 35 Day", "value": "1.25b mg FA/100 g of fresh tissue"}, {"measurement": "22:5 n-3, ham", "setting": "SDA 0.4%, 35 Day", "value": "15.2c mg FA/100 g of fresh tissue"}, {"measurement": "22:6 n-3, ham", "setting": "SDA 0.4%, 35 Day", "value": "2.59 mg FA/100 g of fresh tissue"}, {"measurement": "Lipid content, ham", "setting": "SDA 0.4%, 35 Day", "value": 3.5, "unit": "%"}, {"measurement": "Total PUFA, ham", "setting": "SDA 0.4%, 35 Day", "value": "459.2 mg FA/100 g of fresh tissue"}, {"measurement": "Total monoenes, ham", "setting": "SDA 0.4%, 35 Day", "value": "1715 mg FA/100 g of fresh tissue"}, {"measurement": "Total n-3, ham", "setting": "SDA 0.4%, 35 Day", "value": "42.9b mg FA/100 g of fresh tissue"}, {"measurement": "Total n-6, ham", "setting": "SDA 0.4%, 35 Day", "value": "416.4 mg FA/100 g of fresh tissue"}, {"measurement": "Total saturates, ham", "setting": "SDA 0.4%, 35 Day", "value": "1166.5 mg FA/100 g of fresh tissue"}, {"measurement": "n-3/n-6, ham", "setting": "SDA 0.4%, 35 Day", "value": 0.101, "unit": "bc"}, {"measurement": "12:0, ham", "setting": "SDA 0.6%, 35 Day", "value": "1.37 mg FA/100 g of fresh tissue"}, {"measurement": "14:0, ham", "setting": "SDA 0.6%, 35 Day", "value": "23.9 mg FA/100 g of fresh tissue"}, {"measurement": "16:0, ham", "setting": "SDA 0.6%, 35 Day", "value": "482.6 mg FA/100 g of fresh tissue"}, {"measurement": "16:1 n-7, ham", "setting": "SDA 0.6%, 35 Day", "value": "69.5 mg FA/100 g of fresh tissue"}, {"measurement": "18:0, ham", "setting": "SDA 0.6%, 35 Day", "value": "252.5 mg FA/100 g of fresh tissue"}, {"measurement": "18:1 n-7, ham", "setting": "SDA 0.6%, 35 Day", "value": "92.6 mg FA/100 g of fresh tissue"}, {"measurement": "18:1 n-9, ham", "setting": "SDA 0.6%, 35 Day", "value": "854.9 mg FA/100 g of fresh tissue"}, {"measurement": "18:2 n-6, ham", "setting": "SDA 0.6%, 35 Day", "value": "215.7 mg FA/100 g of fresh tissue"}, {"measurement": "18:3 n-3, ham", "setting": "SDA 0.6%, 35 Day", "value": "5.03 mg FA/100 g of fresh tissue"}]}]}
